Test results from patent US4633014A, “Substituted 3-hydrazinopropionates” (priority 1983, dated 1986).

Experiments:
[1] = test system: arrhythmia induced by an intravenous administration of calcium chloride; test: Antiarrhythmic activity on a model of arrhythmia induced by intravenous calcium chloride (antagonism to calcium) in mice; format: in vivo; conditions: white mice, 20-40 minutes before
Experimental: The specific (antiarrhythmic) effect and acute toxicity were studied.
The antiarrhythmic activity of the compounds according to the present invention was studied on a model of arrhythmia induced by an intravenous administration of calcium chloride. In experiments on white mice of both sexes with a mass of 18-25 g narcotized by urethane (1,200 mg/kg intraperitoneally) ECG in the second standard lead was recorded. A 2% solution of calcium chloride was introduced into the tail vein at a constant rate (0.01 ml for 2 sec). The dose of calcium chloride causing arrhythmia and the dose causing the heart arrest were determined. In the test groups the test compounds were administered intraperitoneally 20-40 minutes before the beginning of the experiment.

in vivo = conditions: mouse, in vivo, ip
Experimental: (§1) The study of the effect provided by the compounds according to the present invention on the cardio-vascular system was carried out in experiments on white mice. The specific (antiarrhythmic) effect and acute toxicity were studied.
(§2) The acute toxicity of the compounds according to the present invention was determined in experiments on white mice with a mass of 20-25 g. The test compounds were administered intraperitoneally in the form of aqueous solutions or suspensions in Twin-80. Observation over the test animals was effected for 10 days.

white mice = test: in vivo
Experimental: as §1, §2

[2] = white mice, intraperitoneal, relative to quinidine

SMILES	Dose of calcium chloride causing arrythmia in animals under experiment ([1]; intraperitoneal dose 5 mg/kg)	Dose of calcium chloride causing death in animals under experiment ([1]; intraperitoneal dose 5 mg/kg)	Dose of calcium chloride causing arrythmia in animals under experiment ([1]; intraperitoneal dose 15 mg/kg)	Dose of calcium chloride causing death in animals under experiment ([1]; intraperitoneal dose 15 mg/kg)	LD50 at 240 h (in vivo) [mg/kg]	Relative toxisity to quinidine (white mice; mouse, in vivo, ip, 14400 min)	Relative toxisity to quinidine (white mice; [2])
COC(=O)CCN(C(=O)Cc1ccccc1)N(C)C [I-30, 3-(2,2-dimethyl-1-benzylcarbonylhydrazino)methylpropionate]	94,0 mg/kg	120,5 mg/kg	102,0 mg/kg	125,0 mg/kg	1200	7,6	
COC(=O)CCN(C(=O)c1ccccc1F)N(C)C [I-31, 3-(2,2-dimethyl-I-(2'-fluorophenylcarbonyl)hydrazino)methylpropionate]	88,5 mg/kg	109,0 mg/kg	100,5 mg/kg	112,5 mg/kg	1600	10,2	
COC(=O)CCN(C(=O)c1ccc(Br)cc1)N(C)C [I-32, 3-(2,2-dimethyl-1-(4'-bromophenylcarbonyl)hydrazino)methylpropionate]	90,3 mg/kg	105,5 mg/kg	100,0 mg/kg	110,0 mg/kg	1680	10,7	
COC(=O)CCN(C(=O)c1ccccc1COC(=O)c1ccccc1)N(C)C [I-33]	87,5 mg/kg	108,6 mg/kg	111,0 mg/kg	132,5 mg/kg	2850	18,2	
C=CC(=O)N(CCC(=O)OC)N(C)C [I-34, 3-(2,2-dimethyl-1-acroylhydrazino)-methylpropionate]	108,4 mg/kg	130,0 mg/kg	110,5 mg/kg	136,0 mg/kg	980	6,2	
COC(=O)CCN(C(=O)CCO)N(C)C [I-35, 3-(2,2-Dimethyl-1-3'-hydroxypropanoylhydrazino)-methylpropionate]	102,3 mg/kg	120 mg/kg	105,8 mg/kg	132,5 mg/kg	> 3000	> 19,2	
COC(=O)CCN(C(=O)OC)N(C)C [I-36, 3-(2,2-dimethyl-1-methoxycarbonylhydrazino)methylpropionate]	94,0 mg/kg	113,6 mg/kg	98,6 mg/kg	118,5 mg/kg	1380		8,8
COC(=O)C(C)CN(C(C)=O)N(C)C (stereo not drawn) [I-37, 3-(2,2-dimethyl-I-acetylhydrazino)-2-methylmethylpropionate]	100 mg/kg	132,0 mg/kg	123 mg/kg	138,0 mg/kg	810		5,1
CCCCCC(=O)N(CC(C)C(=O)OC)N(C)C (stereo not drawn) [I-38, 3-(2,2-dimethyl-1-hexanoylhydrazino)-2-methylmethylpropionate]	102,0 mg/kg	115,8 mg/kg	96,5 mg/kg	120,0 mg/kg	1930	12,3	
COC(=O)C(C)CN(C(=O)c1ccccc1)N(C)C (stereo not drawn) [I-39, 3-(2,2-dimethyl-1-benzoylhydrazino)-2-methylmethylpropionate]	88,7 mg/kg	111,3 mg/kg	100,0 mg/kg	121,5 mg/kg	1750	11,2	
COC(=O)C(C)CN(C(=O)c1ccccc1F)N(C)C (stereo not drawn) [I-40, 3-(2,2-dimethyl-1-2'-fluorobenzoylhydrazino)-2-methylmethylpropionate]	93,5 mg/kg	115,0 mg/kg	103,3 mg/kg	118,6 mg/kg	1400	8,0	
COC(=O)C(C)CN(C(=O)c1ccc(Br)cc1)N(C)C (stereo not drawn) [I-41]	90,6 mg/kg	110,0 mg/kg	102,5 mg/kg	122,0 mg/kg	2430		15,5
CCOC(=O)CCN(C(C)=O)N(C)C [I-42, 3-(2,2-dimethyl-1-acetylhydrazino)ethylpropionate]	87,5 mg/kg	112,0 mg/kg	103,0 mg/kg	115,0 mg/kg	2380	15,2	
CCCCCC(=O)N(CCC(=O)OCC)N(C)C [I-43, 3-(2,2-dimethyl-1-hexanoylhydrazino)ethylpropionate]	94,0 mg/kg	105,0 mg/kg	108,5 mg/kg	120,3 mg/kg	1460	9,3	
CCOC(=O)CCN(C(=O)c1ccccc1)N(C)C [I-44, 3-(2,2-dimethyl-1-benzoylhydrazino)ethylpropionate]	101,0 mg/kg	120,0 mg/kg	98,5 mg/kg	126,0 mg/kg	1650	10,5	
CCOC(=O)CCN(C(=O)c1ccccc1F)N(C)C [I-45, 3-/2,2-dimethyl-1-(2'-fluorobenzoyl)-hydrazino/ethylpropionate]	95,0 mg/kg	112,5 mg/kg	102,8 mg/kg	125,0 mg/kg	1480	9,4	
CCOC(=O)CCN(C(=O)c1ccc(Br)cc1)N(C)C [I-46, 3-/2,2-dimethyl-1-(4'-bromobenzoyl)hydrazino/ethylpropionate]	98,0 mg/kg	105,0 mg/kg	100,0 mg/kg	118,3 mg/kg	1500	9,6	
CC(=O)N(CCC(N)=O)N(C)C [I-47, 3-(2,2-dimethyl-1-acetylhydrazino)propionamide]	103 mg/kg	118 mg/kg	108 mg/kg	125 mg/kg	> 3000	> 19,2	
CCCC(=O)N(CCC(N)=O)N(C)C [I-48, 3-(2,2-dimethyl-1-butyrylhydrazino)propionamide]	88 mg/kg	101,8 mg/kg	95,3 mg/kg	109 mg/kg	1700	10,9	
CCCCCC(=O)N(CCC(N)=O)N(C)C [I-49, 3-(2,2-dimethyl-1-hexanoylhydrazino)propionamide]	101,3 mg/kg	120,5 mg/kg	108,6 mg/kg	136,8 mg/kg	960	6,1	
CCCCCCCCCCCCCCCCCC(=O)N(CCC(N)=O)N(C)C [I-50, 3-(2,2-dimethyl-1-octadecanoylhydrazino)propionamide]	102,4 mg/kg	118,0 mg/kg	118,6 mg/kg	142,5 mg/kg	> 3000	> 19,2	
